In ChEMBL document CHEMBL1201862, “PubChem BioAssay data set” (2004):
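These data come from cells grown in 96-well plates and exposed to compound for 48 hours at five concentrations. Here, GI50 denotes the concentration required for 50% inhibition of growth.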 Active and inactive are the calls of the source. No stated cut-off is given here; in the data, active = GI50 up to about 1.1 µM and inactive = higher.

Tests used:
Test in all cases: NCI tumour cell line growth inhibition, 48 h
[1] = tested on: M14
[2] = tested on: TK-10
[3] = tested on: OVCAR-4
[4] = tested on: SNB-19
[5] = tested on: K562
[6] = tested on: NCI-H522
[7] = tested on: OVCAR-3
[8] = tested on: COLO 205
[9] = tested on: A498
[10] = tested on: SF-268
[11] = tested on: NCI-H23
[12] = tested on: U-251
[13] = tested on: SK-MEL-5
[14] = tested on: HCT-116
[15] = tested on: Malme-3M
[16] = tested on: SK-MEL-28
[17] = tested on: CAKI-1
[18] = tested on: HOP-62
[19] = tested on: PC-3
[20] = tested on: HT-29

Structure (SMILES) | GI50 [1] | GI50 [2] | GI50 [3] | GI50 [4] | GI50 [5] | GI50 [6] | GI50 [7] | GI50 [8] | GI50 [9] | GI50 [10] | GI50 [11] | GI50 [12] | GI50 [13] | GI50 [14] | GI50 [15] | GI50 [16] | GI50 [17] | GI50 [18] | GI50 [19] | GI50 [20]
Cc1ccc(/C=N/Nc2nncc3ccccc23)s1 | > 67.5 µM (inactive) | > 52 µM (inactive) | 26.3 µM (inactive) | > 100 µM (inactive) | > 100 µM (inactive) | 31.5 µM (inactive) | > 55.8 µM (inactive) | > 100 µM (inactive) | > 100 µM (inactive) | > 58.1 µM (inactive) | > 83.8 µM (inactive) | 53.2 µM (inactive) | > 100 µM (inactive) | 59.6 µM (inactive) | > 75.9 µM (inactive) | > 100 µM (inactive) | > 100 µM (inactive) | > 46.7 µM (inactive) | 96.8 µM (inactive) | > 100 µM (inactive)
O=C1C(Cl)=C(N2CCN(c3ccccn3)CC2)C(=O)c2c(O)ccc(O)c21 | 1.46 µM (inactive) | 2.29 µM (inactive) | 1.59 µM (inactive) | 5.92 µM (inactive) | 0.512 µM (active) | 1.74 µM (inactive) | 1.95 µM (inactive) | 1.43 µM (inactive) | 4.25 µM (inactive) | 2.59 µM (inactive) | 1.18 µM (inactive) | 8.49 µM (inactive) | 1.42 µM (inactive) | 1.7 µM (inactive) | 1.65 µM (inactive) | 1.9 µM (inactive) | 2.08 µM (inactive) | 4.67 µM (inactive) | 1.94 µM (inactive) | 1.28 µM (inactive)
COc1cc2c3c([nH]c2c(OC)c1OC)CCN(Cc1ccccc1)C3 | 14.1 µM (inactive) | 21.7 µM (inactive) | 64.7 µM (inactive) | 3.07 µM (inactive) | 20.2 µM (inactive) | > 100 µM (inactive) | 64.6 µM (inactive) | 17 µM (inactive) | 22.3 µM (inactive) | 62.5 µM (inactive) | 33.1 µM (inactive) | 31.8 µM (inactive) | 18.9 µM (inactive) | 33.9 µM (inactive) | 16.6 µM (inactive) | 21.6 µM (inactive) | 0.787 µM (active) | 93.5 µM (inactive) | 55.1 µM (inactive) | 11.4 µM (inactive)
O=c1[nH]nc(Cc2c[nH]c3ccccc23)o1 | > 100 µM (inactive) | > 100 µM (inactive) | > 100 µM (inactive) | > 100 µM (inactive) | > 100 µM (inactive) | > 100 µM (inactive) | > 100 µM (inactive) | > 100 µM (inactive) | > 100 µM (inactive) | > 100 µM (inactive) | > 100 µM (inactive) | > 100 µM (inactive) | > 100 µM (inactive) | > 100 µM (inactive) | > 100 µM (inactive) | > 100 µM (inactive) | > 100 µM (inactive) | > 100 µM (inactive) | > 100 µM (inactive) | > 100 µM (inactive)
CC(Cc1cccc2c1Nc1ccccc1S2)N(C)CCO (stereo not given) | > 100 µM (inactive) | > 100 µM (inactive) | > 100 µM (inactive) | > 100 µM (inactive) | > 100 µM (inactive) | > 100 µM (inactive) | > 100 µM (inactive) | > 100 µM (inactive) | 26.4 µM (inactive) | > 100 µM (inactive) | > 100 µM (inactive) | > 100 µM (inactive) | > 100 µM (inactive) | > 100 µM (inactive) | > 100 µM (inactive) | > 100 µM (inactive) | > 100 µM (inactive) | > 100 µM (inactive) | > 100 µM (inactive) | > 100 µM (inactive)
CC(=O)OC1=C(c2ccccc2)S(=O)(=O)c2ccccc21 | > 100 µM (inactive) | > 100 µM (inactive) | > 100 µM (inactive) | > 100 µM (inactive) | > 100 µM (inactive) | > 100 µM (inactive) | > 100 µM (inactive) | > 100 µM (inactive) | > 100 µM (inactive) | > 100 µM (inactive) | > 100 µM (inactive) | > 100 µM (inactive) | > 100 µM (inactive) | > 100 µM (inactive) | > 100 µM (inactive) | > 100 µM (inactive) | > 100 µM (inactive) | > 100 µM (inactive) | > 100 µM (inactive) | > 100 µM (inactive)
N#Cc1ncn(CCO)c1N | > 100 µM (inactive) | > 100 µM (inactive) | > 100 µM (inactive) | > 100 µM (inactive) | > 100 µM (inactive) | > 100 µM (inactive) | > 100 µM (inactive) | > 100 µM (inactive) | > 100 µM (inactive) | > 100 µM (inactive) | > 100 µM (inactive) | > 100 µM (inactive) | > 100 µM (inactive) | > 100 µM (inactive) | > 100 µM (inactive) | > 100 µM (inactive) | > 100 µM (inactive) | > 100 µM (inactive) | > 100 µM (inactive) | > 100 µM (inactive)
